Values joined by “and” are separate entries in the source; they are usually repeats but may differ in a detail not shown here. Equal values may be shown once.
Experiments:
[1] = Improving effect on glomerulonephritis in rat; format: in vivo, rat (Sprague-Dawley); details: for total urinary protein / urinary albumin: 50 mg/kg/day, p.o.
Procedure: Procedure: Nephritic rat was prepared according to the method of Matsunaga et al.[Folia pharmacol. japon. 78, 491,(1981)]using Sprague-Dawley rat (male, 5 weeks old). That is, the rat was immunized preliminarily by subcutaneous injection of a mixture of 3 mg of rabbit serum albumin (RSA) and an equal volume of Freund's complete adjuvant, and from two weeks after that RSA was given intravenously at the dose of 1 mg/rat three times a week for 8 weeks. Then 24 hour-urine was collected to determine total urinary protein and urinary albumin. Rats of which total urinary protein was 20 mg/100g/24hr or more were chosen for the experiment. The control group received water (vehicle) alone at 10 ml/kg/day, and the Compound No.18 group received the Compound at the dose of 50 mg/kg/day (10 ml/kg, water) once a day for 2 weeks. After 1 week and 2 weeks of treatment, 24 hour-urine was collected to determine total urinary protein and urinary albumin.

[2] = Proteinuria improving effect in rat with adriamycin-induced nephrosis; format: in vivo, rat (Sprague-Dawley)
Procedure: Procedure: The experiment was carried out with Sprague-Dawley rat (male, 5 weeks old) according to the method of T. Bertani et al.[(Laboratory Invest.4, 16, (1982)]. Adriamycin was given intravenously at the dose of 7.5 mg/kg and two weeks later urine was collected for 24 hours after water was loaded orally at 10 ml/kg. Total urinary protein and albumin excreted in the urine were determined; rats of which total urinary protein was 20 mg/100g/24 hours or more were chosen for the experiment. The control group received water (vehicle) alone at 10 ml/kg/day, and the Compound No.18 group received the Compound at the dose of 50 mg/kg/day (10 ml/kg, water) once a day for 2 weeks. After 1 week or 2 weeks of treatment with the drug, 24 hour-urine was collected to determine total urinary protein and albumin. Two weeks later blood was taken from the thoracic aorta of the rat under pentobarbital anesthesia (50 mg/kg, intraperitoneal injection) to determine plasma cholesterol level.

[3] = Toxicological study in the rat; format: in vivo, rat (male Wistar); parameters: key to Spleen: Widening of red pulp / Spleen: Congestion (dilatation of sinus) / Spleen: Extramedullary hematopoiesis / Spleen: Atrophy of white pulp / Liver: Parenchymal cell alteration / Kidney: Dilatation of pelvis / Heart: Cardiac cell alteration / Lung: Alteration / Bone marrow: Proliferation of erythroblast: -: negative; +: mild; ++: moderate; +++: severe; details: for Adrenals weight / Body weight (B.V.) / Brains weight / Gonads weight / Heart weight / Hypophy. weight / Kidney weight / Liver weight / Lung weight / Spleen weight / Thymus weight / Thyroid weight / Bone marrow: Proliferation of erythroblast / Heart: Cardiac cell alteration / Kidney: Dilatation of pelvis / Liver: Parenchymal cell alteration / Lung: Alteration / Spleen: Atrophy of white pulp / Spleen: Congestion (dilatation of sinus) / Spleen: Extramedullary hematopoiesis / Spleen: Widening of red pulp: 2 weeks; for Adrenals weight / Body weight (B.V.) / Brains weight / Gonads weight / Heart weight / Hypophy. weight / Kidney weight / Liver weight / Lung weight / Spleen weight / Thymus weight / Thyroid weight: mean; for A/G ratio / AI.P / Albumin / Calcium / GOT / GPK / GPT / Glucose / Greatinine / LAP / LDH / Total bilirubin / Total cholesterol / Total protein / Urea nitrogen: mean ± S.D.
Procedure: Procedure: Five weeks old, male Wistar rats were used. The rats were given the Compound 18 orally once a day for 14 days at doses of 100 and 300 mg/kg/10 ml of water as a suspension with 5% gum arabic. Control rats were given vehicle (10 ml/kg of water) alone. After fasting a night following the final dose of a 2 week treatment, the rats were anesthetized with ethyl ether and the blood was collected into a heparinized syringe from the abdominal aorta and the plasma was separated for the examination of blood chemistry. Blood parameters such as total protein, glucose, calcium, urea nitrogen, creatinine, total cholesterol, total bilirubin, alkaline phosphatase (ALP), leucine aminopeptidase (LAP), lactate dehydrogenase (LDH), glutamic oxaloacetic transaminase (GOT), glutamic pyruvic transaminase (GPT), creatine phosphokinase (CPK), albumin and A/G ratio were analysed by use of auto-analyzer (Hitachi 716). The organs such as liver, kidney, heart, lung, spleen, adrenal glands, thymus, testris, brain and hypophysis were excised and weighed. Some organs (liver, kidney, heart, lung, spleen) were fixed in 10% neutral formalin solution for histological examinations. Bone marrow was fixed as well without weighing. These fixed organs were stained with Hematoxyline-Eosin for histological examinations.

[4] = 1 week after, *p<0.05 against pretreatment
[5] = 2 weeks after, *p<0.05 against pretreatment
[6] = 50 mg/kg/day, p.o., 1 week after
[7] = 50 mg/kg/day, p.o., 2 weeks after
[8] = 50 mg/kg/day, p.o., before treatment
[9] = 100 mg/kg/day, single rats No. 7-10
[10] = 300 mg/kg/day, single rats No. 11-15

CC1=C(C)C(=O)C(Cc2cccnc2)=C(C)C1=O [Compound No. 18]
effect on nephritis (in words) ([1]; 50 mg/kg/day for 2 weeks): improves nephritis
total urinary protein compared with control group (in words) ([1]; 50 mg/kg/day for 2 weeks): decreased total urinary protein
urinary albumin compared with control group (in words) ([1]; 50 mg/kg/day for 2 weeks): decreased total urinary protein and urinary albumin
total urinary protein [1, 4]: 37 ± 8 mg/100 g/24 hr
urinary albumin [1, 4]: 17 ± 5
total urinary protein [1, 5]: 48 ± 16 mg/100 g/24 hr
urinary albumin [1, 5]: 24 + 12
total urinary protein ([1]; before treatment): 75 ± 28 mg/100 g/24 hr
urinary albumin ([1]; before treatment): 45 ± 21
effect on adriamycin-induced nephrosis (in words) ([2]; 50 mg/kg/day for 2 weeks): improves adriamycin-induced nephrosis
total urinary protein versus pretreatment value (in words) ([2]; 50 mg/kg/day for 2 weeks): neither total urinary protein nor urinary albumin differed from the respective pretreatment values
urinary albumin versus pretreatment value (in words) ([2]; 50 mg/kg/day for 2 weeks): neither total urinary protein nor urinary albumin differed from the respective pretreatment values
total urinary protein [2, 6]: 55 ± 17 mg/100 g/24 hr
urinary albumin [2, 6]: 25 ± 10
total urinary protein [2, 7]: 59 ± 9 mg/100 g/24 hr
urinary albumin [2, 7]: 31 ± 7
serum cholesterol ([2]; 50 mg/kg/day, p.o., 2 weeks after, #p<0.05 against control): 49 ± 4 mg/dL
total urinary protein [2, 8]: 76 ± 28 mg/100 g/24 hr
urinary albumin [2, 8]: 28 ± 14
serum cholesterol level (in words) ([2]; after 2 weeks, 50 mg/kg/day): decreased remarkably
Adrenals weight ([3]; 100 mg/kg orally): 47.7 mg
Body weight (B.V.) ([3]; 100 mg/kg orally): 170.3 g
Brains weight ([3]; 100 mg/kg orally): 1.747 g
Gonads weight ([3]; 100 mg/kg orally): 1.906 g
Heart weight ([3]; 100 mg/kg orally): 0.709 g
Hypophy. weight ([3]; 100 mg/kg orally): 8.3 mg
Kidney weight ([3]; 100 mg/kg orally): 1.579 g
Liver weight ([3]; 100 mg/kg orally): 6.347 g
Lung weight ([3]; 100 mg/kg orally): 0.872 g
Spleen weight ([3]; 100 mg/kg orally): 0.673 g
Thymus weight ([3]; 100 mg/kg orally): 0.45 g
Thyroid weight ([3]; 100 mg/kg orally): 11.4 mg
Bone marrow: Proliferation of erythroblast [3, 9]: -
Heart: Cardiac cell alteration [3, 9]: -
Kidney: Dilatation of pelvis [3, 9]: - (2×) and ++ and +
Liver: Parenchymal cell alteration [3, 9]: -
Lung: Alteration [3, 9]: -
Spleen: Atrophy of white pulp [3, 9]: -
Spleen: Congestion (dilatation of sinus) [3, 9]: -
Spleen: Extramedullary hematopoiesis [3, 9]: +
Spleen: Widening of red pulp [3, 9]: -
A/G ratio ([3]; 100 mg/kg/day): 1.65 ± 0.05
AI.P ([3]; 100 mg/kg/day): 194 ± 32 U/I
Albumin ([3]; 100 mg/kg/day): 3.43 ± 0.05 g %
Calcium ([3]; 100 mg/kg/day): 9.84 ± 0.41 mg %
GOT ([3]; 100 mg/kg/day): 57 ± 6 U/I
GPK ([3]; 100 mg/kg/day): 44 ± 5 U/I
GPT ([3]; 100 mg/kg/day): 13 ± 1 U/I
Glucose ([3]; 100 mg/kg/day): 104 ± 11 mg %
Greatinine ([3]; 100 mg/kg/day): 0.5 ± 0.0 mg %
LAP ([3]; 100 mg/kg/day): 20 ± 1 U/I
LDH ([3]; 100 mg/kg/day): 86 ± 22 U/I
Total bilirubin ([3]; 100 mg/kg/day): 0.27 ± 0.03 mg %
Total cholesterol ([3]; 100 mg/kg/day): 47 ± 7 mg %
Total protein ([3]; 100 mg/kg/day): 5.51 ± 0.11 g %
Urea nitrogen ([3]; 100 mg/kg/day): 15.8 ± 0.7 mg %
body weight (in words) ([3]; 300 mg/kg): tended to have a lower body weight, but the change was not significant
splenomegaly (in words) ([3]; 300 mg/kg): one of 5 rats showed a mild splenomegaly
Adrenals weight ([3]; 300 mg/kg orally): 43.0 mg
Body weight (B.V.) ([3]; 300 mg/kg orally): 162.0 g
Brains weight ([3]; 300 mg/kg orally): 1.714 g
Gonads weight ([3]; 300 mg/kg orally): 1.873 g
Heart weight ([3]; 300 mg/kg orally): 0.913 g
Hypophy. weight ([3]; 300 mg/kg orally): 8.1 mg
Kidney weight ([3]; 300 mg/kg orally): 1.508 g
Liver weight ([3]; 300 mg/kg orally): 6.264 g
Lung weight ([3]; 300 mg/kg orally): 0.929 g
Spleen weight ([3]; 300 mg/kg orally): 0.703 g
Thymus weight ([3]; 300 mg/kg orally): 0.447 g
Thyroid weight ([3]; 300 mg/kg orally): 12.0 mg
extramedullary hematopoiesis (in words) ([3]; 300 mg/kg, one of 5 rats): increased extramedullary hematopoiesis
Bone marrow: Proliferation of erythroblast [3, 10]: -
Heart: Cardiac cell alteration [3, 10]: -
Kidney: Dilatation of pelvis [3, 10]: - (4×) and +
Liver: Parenchymal cell alteration [3, 10]: -
Lung: Alteration [3, 10]: -
Spleen: Atrophy of white pulp [3, 10]: - (4×) and +
Spleen: Congestion (dilatation of sinus) [3, 10]: -
Spleen: Extramedullary hematopoiesis [3, 10]: + (4×) and ++
Spleen: Widening of red pulp [3, 10]: - (3×) and + (2×)
A/G ratio ([3]; 300 mg/kg/day): 1.73
AI.P ([3]; 300 mg/kg/day): 149 U/I
Albumin ([3]; 300 mg/kg/day): 3.47 ± 0.13 g %
Calcium ([3]; 300 mg/kg/day): 9.70 ± 0.18 mg %
GOT ([3]; 300 mg/kg/day): 64 ± 9 U/I
GPK ([3]; 300 mg/kg/day): 52 ± 9 U/I
GPT ([3]; 300 mg/kg/day): 14 ± 1 U/I
Glucose ([3]; 300 mg/kg/day): 97 ± 11 mg %
Greatinine ([3]; 300 mg/kg/day): 0.4 ± 0.1 mg %
LAP ([3]; 300 mg/kg/day): 19 ± 1 U/I
LDH ([3]; 300 mg/kg/day): 99 ± 18 U/I
Total bilirubin ([3]; 300 mg/kg/day): 0.28 ± 0.02 mg %
Total cholesterol ([3]; 300 mg/kg/day): 41 ± 14 mg %
Total protein ([3]; 300 mg/kg/day): 5.48 ± 0.20 g %
Urea nitrogen ([3]; 300 mg/kg/day): 14.5 ± 0.6 mg %
blood chemistry (in words) ([3]; 100 and 300 mg/kg): no changes in the blood chemistry
organ weight (in words) ([3]; 100 and 300 mg/kg): no significant changes in any organ weight
histology of the other organs (in words) ([3]; after 2 weeks): The other organs showed no changes
